Source: PubChem BioAssay (NCI)
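Dose response: 5 concentrations. Exposure: 48 h. Format: 96-well plates. Endpoint: linear interpolation; highest concentration if not reached. GI50 marks 50% less growth. At the TGI there is no net growth.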 Where a SMILES comes first, the peptide text is derived from it. The star is where a group is joined. ONb = O=[N+]([O-])c1ccc(CO*)cc1; Boc = CC(C)(C)OC(=O)*

What was measured:
Assay in all cases: NCI tumour cell line growth inhibition, 48 h
UO-31 renal = tested on: UO-31 renal
IGROV1 ovarian = tested on: IGROV1 ovarian
A498 renal = tested on: A498 renal
SF-539 CNS = tested on: SF-539 CNS
HOP-62 NSCLC = tested on: HOP-62 NSCLC
MOLT-4 leukemia = tested on: MOLT-4 leukemia
A549 NSCLC = tested on: A549 NSCLC
OVCAR-8 ovarian = tested on: OVCAR-8 ovarian
SNB-19 CNS = tested on: SNB-19 CNS
MCF7 breast = tested on: MCF7 breast

SMILES	GI50 (UO-31 renal) [µM]	TGI (UO-31 renal) [µM]	GI50 (IGROV1 ovarian) [µM]	TGI (IGROV1 ovarian) [µM]	GI50 (A498 renal) [µM]	TGI (A498 renal) [µM]	GI50 (SF-539 CNS) [µM]	TGI (SF-539 CNS) [µM]	GI50 (HOP-62 NSCLC) [µM]	TGI (HOP-62 NSCLC) [µM]	TGI (MOLT-4 leukemia) [µM]	TGI (A549 NSCLC) [µM]	TGI (OVCAR-8 ovarian) [µM]	TGI (SNB-19 CNS) [µM]	TGI (MCF7 breast) [µM]	GI50 (MOLT-4 leukemia) [µM]	GI50 (A549 NSCLC) [µM]	GI50 (OVCAR-8 ovarian) [µM]	GI50 (SNB-19 CNS) [µM]
CCCCCCCCCCCCCC[n+]1ccc2c(C)c3c(c(C)c2c1)c1cc(O)ccc1n3CC	1.39	4.57	0.496	2.06	0.327	1.27	0.419	1.52	0.408	1.94									
COC(=O)/C=C/c1ccc2c(c1)CC1(C2)Cc2cc3c(cc2C1=O)CCC3 (centres undefined)		> 100		> 100		> 100		> 100			> 100	> 100	68.8	> 100	> 100				
NC1CC2NC3CCCCC3NC2CC1N (centres undefined)		> 100		> 100		79.4		> 100			92.9	> 100	> 100	> 100	> 100				
CC(C)C1=CCC2C(=C1)CCC1C(C)(C(=O)O)CCCC21C (centres undefined) (tested in a mixture with another compound)		> 100		> 100		> 100		> 100		> 100	> 100	> 100	> 100		> 100				
O=c1[nH]c(Nc2cc(Cl)cc(Cl)c2)nc2nc[nH]c12		> 75		> 75				> 75		> 75	> 75	> 75	> 75	> 75	> 75				
O=C1/C(=C/c2ccccc2O)N=C(c2ccccc2)N1c1nc2ccccc2s1		> 100		> 100		53.1		57		> 100	60.7		72.6		69.2				
CCOC(=O)C1=C(C)N(c2ccc(C)cc2)C2=C(C(=O)N(c3ccccc3)C2c2ccccc2)C1c1ccccc1 (centres undefined)		> 25		> 25		> 25		> 25		> 25	> 25	> 25	> 25	> 25					
Cc1ccc(O)c(-c2cc(-c3cccc(Cl)c3)c(C#N)c(N)n2)c1		52.8		24.6				52		48.2	38.6	43.4	> 100		42.7				
Cc1c2cnccc2c(C)c2c1c1ccccc1n2CCCCCCNCc1ccccc1		3.79		3.85		3.85		3.61		7.14	0.7	3.74		3.75	3.22				
CN1CCC(CN2c3ccccc3Sc3ccccc32)CC1		21.8		30.4		29		28.5		32.2	32.9	28.4	31.2	29.3					
CC1(CCCO)CCCCCCCCCC(C)(CCCO)C1=O (centres undefined)		> 100		> 100		> 100				> 100	> 100	> 100	> 100	> 100	> 100				
COc1cc(/C=C/C(=O)c2c(C)nc3ccccc3c2C)ccc1OCCCOc1cc2c(cc1OC)C(=O)N1CCC[C@H]1C=N2	0.0583	0.817			0.0194	0.0419	0.0239	0.0563	0.0303	0.0609		0.0623	> 38.1			0.0323	0.0268	0.0329	0.187
CCOC(=O)Cc1nc2sc(S(N)(=O)=O)nn2c1Br		29.4		90.8		65.6				> 100		> 100	47.7	> 100	> 100				
Cn1/c(=N\S(=O)(=O)c2ccccc2)n(S(=O)(=O)c2ccccc2)c2ccccc21		> 100		> 100		> 100				> 100	> 100	> 100	> 100	> 100					
CCC1CN2CCc3c([nH]c4ccccc34)C2C[C@@H]1CC(=O)N(C)C (some centres undefined)		> 100		> 100		> 100		> 100		> 100	> 100	> 100	> 100	> 100					
O=C(/C=C/c1ccc(/C=C/C(=O)c2ccc(O)cc2)cc1)c1ccc(O)cc1		> 100				> 100		> 100		> 100	> 100	> 100	> 100	> 100	> 100				
CC(C)CC(NC(=O)OC(C)(C)C)C(=O)NC(CCC(=O)OCc1ccc([N+](=O)[O-])cc1)C(=O)OCc1ccc([N+](=O)[O-])cc1 (stereo not drawn) (Boc-Leu-Glu(ONb)-ONb; configuration not given here)		> 100		47.6		> 100		37.2		> 100	39.8		> 100	> 100					
O=C1CCCC/C1=C\c1ccc(Br)cc1		29.6		38.3				37.1		42.8	6.24	67.7	> 100	13.2	7.4				
CC(=C(C(N)=O)C(N)=O)C1C=C(c2cccs2)CC(c2ccc(Cl)cc2)=C1O (centres undefined)		> 100		> 100		> 100				> 100	> 100	> 100	> 100	> 100	> 100				
CCOC(=O)c1c(N2CCCC2)[nH]c(=O)c(C(c2ccco2)c2c(O)c(C(=O)OCC)c(N3CCCC3)[nH]c2=O)c1O		> 100				> 100		> 100		> 100	> 100	> 100	> 100	> 100	> 100				
O=C1/C(=C/c2cccc(Br)c2)CSC/C1=C\c1cccc(Br)c1		3.71		7.11				13.6		6.74		41.5	9.52	10.6	20.5				
